Assay results: paper PMC10812941, “Selenium-Containing (Hetero)Aryl Hybrids as Potential Antileishmanial Drug Candidates: In Vitro Screening against L. amazonensis” (Biomedicines, 2024)
Like-named read-outs stand apart in the source and are kept apart here.

Assays:
in vitro [1] = details: mouse
[2] = test system: L. amazonensis promastigotes; test: Anti-promastigote assay (resazurin viability); details: for Selectivity Index (SI) CC50 J774 / IC50 promastigotes: J774A.1 vs promastigotes; for IC50: 48 h; for Selectivity Index (SI) CC50 NIH/3T3 / IC50 promastigotes: NIH/3T3 vs promastigotes; for SI (CC50 on murine peritoneal macrophages/IC50 on promastigotes): peritoneal macrophages vs promastigotes
Procedure: (§1) Parasites in the exponential growth phase were used for the in vitro anti-promastigote assay, while those in the stationary phase were used for the anti-amastigote assay. Intracellular amastigote forms were obtained by infecting murine peritoneal macrophages with promastigotes.
Cell viability was assessed using the resazurin (Sigma-Aldrich) assay. A solution of resazurin (Sigma-Aldrich, USA) at 0.2 mg·mL^−1 was added to each well, and after 4 h of incubation at 26 °C, the absorbances at 570 nm and 600 nm were acquired, and the viability calculation for all wells was performed based on the formula and instructions provided by the AlamarBlue® manufacturer’s website (Bio-Rad, Hercules, CA, USA) [41]. Cell viability was evaluated from the optical density and compared to untreated cells. […] The half-maximal inhibitory concentration (IC50) values for each compound were calculated using a nonlinear dose–response regression curve generated by Prism 5 (GraphPad Software, USA).

in vitro [3] = details: mouse; remark: listed apart in the source
[4] = test system: L. amazonensis intracellular amastigotes; test: Anti-amastigote assay in infected murine peritoneal macrophages; details: for IC50: Leishmania amazonensis, Peritoneal macrophage, in Mus musculus, 24 h, read-out: IC50 L. amazonensis Amastigotes
Procedure: as §1
Plates were incubated at 37 °C with 5% CO2 for 1 h to allow adhesion, which was confirmed by microscopy. […] Supernatants were removed after treatment, and cells were washed twice with PBS, fixed with Bouin’s solution (Sigma-Aldrich, USA), and stained with Giemsa (Sigma-Aldrich, USA) diluted 1:10 in distilled water. Coverslips were dehydrated through an acetone/xylene gradient (100%, 70%, 50%, 30%, and 100% each from Sigma-Aldrich) and mounted for microscopic visualization. The total number of intracellular amastigotes was counted in 200 cells per coverslip in three replicates using an optical microscope. The half-maximal inhibitory concentration (IC50) values were calculated for each compound using a nonlinear regression curve in GraphPad Prism 5.0 software (GraphPad Software, San Diego, CA, USA).

[5] = Leishmania amazonensis, read-out: IC50 L. amazonensis Promastigotes, 48 h, resazurin
[6] = read-out: IC50 L. amazonensis Promastigotes, resazurin

Compound | CC50 at 48 h (in vitro [1]; NIH/3T3 fibroblast cells) [µM] | Selectivity Index (SI) CC50 J774 / IC50 promastigotes [2] | IC50 [2, 5] [µM] | Selectivity Index (SI) CC50 NIH/3T3 / IC50 promastigotes [2] | SI (CC50 on murine peritoneal macrophages/IC50 on promastigotes) [2] | IC50 [2, 6] [µM] | CC50 at 48 h (in vitro [3]; J774A.1 macrophage cells) [µM] | Selectivity Index (SI) CC50 J774 / IC50 amastigotes ([4]; J774A.1 vs intracellular amastigotes) | IC50 [4] [µM] | Selectivity Index (SI) CC50 NIH/3T3 / IC50 amastigotes ([4]; NIH/3T3 vs intracellular amastigotes) | CC50 at 48 h (in vitro [1]) [µM] | CC50 at 48 h (in vitro [3]) [µM] | SI (CC50 on murine peritoneal macrophages/IC50 on promastigotes) ([2]; listed as 105) | Selectivity Index (SI) CC50 J774 / IC50 amastigotes [4] | Selectivity Index (SI) CC50 NIH/3T3 / IC50 amastigotes [4] | SI (CC50 on murine peritoneal macrophages/IC50 on promastigotes) ([2]; listed as 108)
C[C@@H]1[C@H](O)[C@@H](C)/C=C/C=C/C=C/C=C/C=C/C=C/C=C/[C@H](O[C@@H]2O[C@H](C)[C@@H](O)[C@H](N)[C@@H]2O)C[C@@H]2O[C@](O)(C[C@@H](O)C[C@@H](O)[C@H](O)CC[C@@H](O)C[C@@H](O)CC(=O)O[C@H]1C)C[C@H](O)[C@H]2C(=O)O [ANFB, amphotericin B, reference compound] | 19.3 ± 1.01 | 2.91 | 9.41 ± 1.13 | 2.05 | 2.67 | 9.4 ± 1.13 | 27.3 ± 0.92 | 28.19 | 0.97 ± 1.14 | 25.92 |  |  |  |  |  | 
Oc1ccc2ccccc2c1[Se]c1ccccc1 [MRK-102] |  |  | 15.2 ± 1.12 |  | 13.20 |  |  |  | > 50 |  | > 200 | > 200 |  |  |  | 
Cc1ccc(-c2nnc([Se]c3ccccc3)o2)cc1 [MRK-103] |  |  | 15.5 ± 1.13 |  | 12.92 |  |  |  | > 50 |  | > 200 | > 200 |  |  |  | 
CC(C)(C)c1cc(O)cc(C(C)(C)C)c1[Se]C#N [MRK-105] |  | 4.94 | 15.5 | 7.22 | 12.92 | 12.2 ± 1.12 |  |  | > 50 |  |  |  | 16.43 |  |  | 
COc1ccccc1[Se]c1c(-c2ccccc2)nc2cc(C)ccn12 [MRK-107] |  | 7.31 | 27.4 ± 1.24 | 7.31 | 7.31 |  |  |  | 18.3 ± 1.5 |  | > 200 | > 200 |  | 10.92 | 10.92 | 
N#C[Se]Cc1cc(=O)oc2cc(O)ccc12 [MRK-108] |  |  | 4.23 ± 2 |  | > 47.31 |  |  |  | > 50 |  | > 200 | > 200 |  |  |  | 47.31
Cc1cn2c([Se]c3ccccc3)c(-c3ccccc3)nc2s1 [MRK-111] |  |  | 17.6 ± 1.18 |  | 11.40 |  |  |  | > 50 |  | > 200 | > 200 |  |  |  | 
Cc1ccn2c([Se]c3ccccc3)c(-c3ccccc3)nc2c1 [MRK-113] |  | 4.88 | 41 ± 1.31 | 4.88 | 4.88 |  |  |  | 15.9 ± 1.69 |  | > 200 | > 200 |  | 12.55 | 12.55 | 
